The subject of data set [1] is KPL-4. The experiment in a line: CELLTITER GLO cell proliferation assay (Example 6). Type of data set: cell-based. As to conditions: KPL4, read-out: IC50 potency KPL-4, Table 4; data in parenthesis = repeat evaluations. The procedure:
(§1) The toxicity of PBD monomer disulfide prodrugs and diaphorase prodrugs were evaluated against KPL-4, WSU-DLCL2, HCT-116, HCC1395 and Jurkat cell cultures. […] KPL-4 cells further have a high expression of DTD on the order of about 839 nRPKM (where nRPKM refers to normalized reads per Kb of transcript length per million mapped read).
(§2) Potency of the disulfide and DT-diaphorase prodrugs was measured by a cell proliferation assay employing the following protocol (CELLTITER GLO™ Luminescent Cell Viability Assay, Promega Corp.). First, an aliquot of 40 ul of cell culture containing about 8000 cells of WSU-DLCL2 cells (low NQO1 gene and GSH level), 4000 cells of KPL-4 (high NQO1 gene and GSH level), HCT-116 cells, HCC1395 cells or Jurkat cells in RPMI-1640 culture medium (supplemented with 10% fetal bovine serum, 2 mM glutamine, 50 uM cystine, and 0.015 g/L L-methionine) was deposited in each well of a 384-well flat clear bottom white polystyrene tissue culture-treated microplates (Corning, N.Y.). Second, control wells were prepared containing medium with and without cells. Third, compounds with and without disulfide or DT-diaphorase prodrugs (n=3) were added to the experimental wells using ECHO acoustic liquid handling technology (Labcyte Inc, Sunnyvale, Calif.) to create a 10-point dose-response curve in triplicate with 1:3× serial dilution. Fourth, cells were cultured in a humidified incubator set at 37° C. and maintaining an atmosphere of 5% CO2. Fifth, the plates were equilibrated to room temperature for approximately 30 minutes. Sixth, a volume of CELLTITER GLO™ Reagent equal to the volume of cell culture medium present in each well was added. Seventh, the contents were mixed for 10 minutes on an orbital shaker in the dark to induce cell lysis. Eighth, the plate was incubated at room temperature for 30 minutes to stabilize the luminescence signal. Ninth, luminescence was recorded and reported in graphs as % activity where RLU (relative luminescence units) was normalized to controls (no compound control minus no cell control). Tenth, data was plotted as individual points for each replicate (n=3) for each antibody as the mean of luminescence for each set of replicates, with standard deviation error bars.

Data set [2] concerns WSU-DLCL2. Description: CELLTITER GLO cell proliferation assay (Example 6). The data set is classed as cell-based. As to conditions: Homo sapiens, WSUDLCL2, read-out: IC50 potency WSU-DLCL2, Table 4; data in parenthesis = repeat evaluations. The procedure: as §1, §2
In data set [3] the test system is A2058. Description: CellTiter-Glo toxicity, 4 days (Example 9). The data set is classed as cell-based. As to conditions: Homo sapiens, A2058, 96 h, 4 days of drug incubation; Table 7A. The procedure: (§3) The toxicity of various PBD monomer disulfide prodrugs and PBD dimer disulfide prodrugs was evaluated on UACC-257, Igrov-1 and A2058 cell lines. Cells were seeded in 384-well plate and treated with drug 24 hours later. After 4 days of drug incubation, the cell viability was determined using Promega CellTiter-Glo luminescent reagent, which measures ATP level (an indirect measure of cell number). The luminescent intensity was measured on PerkinElmer Envision reader. The relative cell viability was calculated by normalizing to non-drug treatment control and was graphed using KleidaGraph software package. IC50 value was determined as the concentration to obtain 50% of the maximum cell killing.

Data set [4] deals with Igrov-1. The experiment in a line: CellTiter-Glo toxicity, 4 days (Example 9). The data set is classed as cell-based. As to conditions: Homo sapiens, IGROV-1, 96 h, 4 days of drug incubation; Table 7A. How it is done:
as §3

The test system of data set [5] is UACC-257. Description: CellTiter-Glo toxicity, 4 days (Example 9). The data set is classed as cell-based. To be noted: Homo sapiens, UACC-257, 96 h, 4 days of drug incubation; Table 7A. How it is done:
as §3

Data set [6] in a line: Disulfide cleavage by cysteine, LC/MS. The data set is classed as physicochemical. To be noted: 15 uM compound, 0.2 mM cysteine, pH 7.0, 37 C. The procedure:
(§4) For disulfide cleavage determination, the compounds were incubated at 15 μM with 0.2 mM cysteine or 4 mM GSH in 100 mM Tris buffer pH 7.0 containing 5% methanol at 37° C. Aliquots were taken at specified time points and the samples were analyzed by LC/MS on Sciex TripleTOF 5600 on a Hypersil Gold C18 column (100×2.1, 1.9 Thermo Scientific). The column was eluted by a gradient of buffer A (0.1% formic acid in 10 mM ammonium acetate) to buffer B (0.1% formic acid in 10 mM ammonium acetate in 90% acetonitrile), 5% B 0-0.5 min, 5-25% B 0.5-8 min, 25-75% B 8-13 min, and 75-95% B 13-13.5 min, 95% B 13.5-14.5 min, 95-5% B 14.5-15 min at 0.4 mL/min. All products were separated and characterized by LC/MS/MS in a positive ESI ion mode. All analytes had the protonated molecular MH+ as the major species with little source fragmentation. Full scan accurate mass peak areas were used to estimate relative abundance of each component.

Data set [7] in a line: Disulfide cleavage by glutathione (GSH), LC/MS. The data set is classed as physicochemical. To be noted: 15 uM compound, 4 mM GSH, pH 7.0, 37 C. How it is done: as §4
For data set [8], the target named is T1, DT Diaphorase (Homo sapiens, UniProt P15559).
T1 construct: purchased Sigma D1315
Description: in vitro DT diaphorase activated drug release assay (NADPH depletion). The data set is classed as biochemical. To be noted: 90 min. The procedure: An in vitro DT diaphorase activated drug release assay was used to measure NADPH depletion. DT diaphorase activated release of Norfloxacin and Payload (PBD) was measured by the in vitro depletion of NADPH. The assay method was modified from the absorbance measurement of NADPH at A340 (Osman et. al, Chemico-Biological Interactions 147 (2004) 99-108) due to the interference of compounds. The depletion of NADPH was measured by monitoring the decrease of fluorescence intensity of NADPH at 480 nm after being excited at […]. […] Prior to assay, dilute the stock to 1 mM as the 5× working solution; (5) DT Diaphorase specific Inhibitor: prepare 40 mM stock of Dicumarol (Sigma, Cat #M1390-5G, MW=336.29) in 0.13 N NaOH, stored at 4° C. Dilute the stock to 250 uM as the 5× working solution; (6) Compounds: dilute the Norfloxacin and PBD conjugated compounds in assay buffer to 250 uM as the 5× working solution; and (7) 384 well black plate with clear bottom. For the assay procedure: (1) The reaction mix containing 0.5 uM DT-D, 50 uM compound, […] NADPH was set up in a 384 well plate at 50 ul/well. For the control with DT Diaphorase inhibitor, Dicumarol was added in the reaction mix at final 50 uM for each compound. Reaction mix containing NADPH and compound only was also added as the baseline controls. The DT Diaphorase was added in the last step; and (2) The reaction mixes were incubated at room temperature for 5, 30, 90 min. The fluorescence intensity (RFU) of DNAPH was recorded on M1000 plate reader (Tecan) with excitation at 340 nm and emission at 480 nm. For data analysis, data was analyzed and plotted using Prism GraphPad 6. The depletion of NADPH was calculated by the formula below at reaction time point at 90 min wherein: % NADPH depletion=[…].

The nature of data set [9]: GSH adduct formation and stability of quinones. The data set is classed as physicochemical. To be noted: 15 mM GSH; for % Rem. (percent remaining after 3 hours): 25 uM, pH 7.0, 37 C; for Degr (degradation) / GSH Adduct: 3 hours. How it is done:
For degradation analysis, the compounds were incubated at 25 μM with 15 mM GSH in 200 mM Tris buffer pH 7.0 containing 5% methanol at 37° C. for 3 hours. The control incubations were conducted without GSH. The samples were analyzed by LC/MS on Sciex TripleTOF 5600 on a Hypersil Gold C18 column (100×2.1, 1.9 μM, Thermo Scientific). The column was eluted by a gradient of buffer A (0.1% formic acid in 10 mM ammonium acetate) to buffer B (0.1% formic acid in 10 mM ammonium acetate in 90% acetonitrile), 5% B 0-0.5 min, 5-25% B 0.5-8 min, 25-75% B 8-13 min, and 75-95% B 13-13.5 min, 95% B 13.5-14.5 min, 95-5% B 14.5-15 min at 0.4 mL/min. All products were separated and characterized by LC/MS/MS in a positive ESI ion mode. Full scan accurate mass peak areas were used to estimate relative abundance of each component.

T1 sequence (P15559 whole entry): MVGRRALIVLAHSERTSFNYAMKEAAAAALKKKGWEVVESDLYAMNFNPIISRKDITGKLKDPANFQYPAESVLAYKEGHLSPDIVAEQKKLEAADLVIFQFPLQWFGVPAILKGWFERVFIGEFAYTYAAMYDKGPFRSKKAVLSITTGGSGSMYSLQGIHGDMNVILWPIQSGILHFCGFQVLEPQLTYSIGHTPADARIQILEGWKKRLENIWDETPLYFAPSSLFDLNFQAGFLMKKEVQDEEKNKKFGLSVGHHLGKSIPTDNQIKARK

`C=C1C[C@H]2C(O)N(C(=O)OCC3(SSCC)CCCC3)c3cc(OC)c(OC)cc3C(=O)N2C1` (some centres unmarked) [PBD monomer disulfide prodrug 5]: the IC50 in data set [1] was determined as 1060 nM; in [2] it was 1350 nM; in data set [3], 395 nM; in [4] it was 765 nM; in [5], 892 nM. In data set [6], the “% Remaining at 24 h by Cys” value turned out to be 90.9%. The “% Remaining at 24 h by GSH” value in data set [7] came out at 65.9%.
In the case of `CCn1cc(C(=O)O)c(=O)c2cc(F)c(N3CCN(C(=O)OCc4cn(C)c5c4C(=O)C(OC)=CC5=O)CC3)cc21`, the “NADPH Dep. (NADPH depletion at 90 minutes)” value in data set [8] stood at 85.2%.
`CCn1cc(C(=O)O)c(=O)c2cc(F)c(N3CCN(C(=O)OCc4c5c(n(C)c4C)C(=O)C=C(OC)C5=O)CC3)cc21`: in [9], the “% Rem. (percent remaining after 3 hours)” value came out at 50% and the “Degr (degradation)” value was “yes”. The “NADPH Dep. (NADPH depletion at 90 minutes)” value in [8] came out at 2.01%.
On the same counts, the results for `CCn1cc(C(=O)O)c(=O)c2cc(F)c(N3CCN(C(=O)OCc4ccc(NC(=O)OCc5cc6c(n5C)C(=O)C=C(OC)C6=O)cc4)CC3)cc21` are 63%, “yes” and 94/0.
On the same counts, the results for `CCn1cc(C(=O)O)c(=O)c2cc(F)c(N3CCN(C(=O)OCc4c(C=O)c5c(n4C)C(=O)C=C(OC)C5=O)CC3)cc21` are 82.1%, “yes” and 91.5%.
Take `C=C1C[C@H]2C(O)N(C(=O)OCc3ccc(NC(=O)OCc4cc5c(n4C)C(=O)C=C(OC)C5=O)cc3)c3cc(OC)c(OC)cc3C(=O)N2C1` (some centres unmarked) [PBD monomer diaphorase prodrug 3]: the results for the IC50 in [1] and in [2] were 351 nM and 443 nM, respectively. Moreover, the “NADPH Dep. (NADPH depletion at 90 minutes)” value in data set [8] is over 90% at.
With `CCn1cc(C(=O)O)c(=O)c2cc(F)c(N3CCN(C(=O)OCc4cc5c(n4C)C(=O)C=C(OC)C5=O)CC3)cc21`, in data set [9], the “% Rem. (percent remaining after 3 hours)” value worked out at 37.6% and the “Degr (degradation)” value is recorded as “yes”. The “NADPH Dep. (NADPH depletion at 90 minutes)” value in data set [8] was found to be 53.23%.
On to `CCn1cc(C(=O)O)c(=O)c2cc(F)c(N3CCN(C(=O)OCc4c(C(=O)OC)c5c(n4C)C(=O)C=C(OC)C5=O)CC3)cc21`, for which the “% Rem. (percent remaining after 3 hours)” value in [9] was 100%. Also, the “NADPH Dep. (NADPH depletion at 90 minutes)” value in data set [8] came out at 17.4%.
As to `C=C1C[C@H]2C(O)N(C(=O)OCc3ccc(SSC(C)(C)C)cc3)c3cc(OC)c(OC)cc3C(=O)N2C1` (some centres unmarked) [PBD monomer disulfide prodrug 6], the half-inhibitory concentration (IC50) in data set [1] worked out at 806 nM; in data set [2], 2810 nM; in data set [3], 567 nM; in data set [4] it was 3260 nM; in data set [5], 497 nM. In data set [6], the “% Remaining at 24 h by Cys” value is reported as 85.4%. Besides, the “% Remaining at 24 h by GSH” value in data set [7] came out at 2.1%.
Turning to `COC(=O)c1c2c(n(C)c1CO)C(=O)C=C(OC)C2=O` [methyl 2-(hydroxymethyl)-5-methoxy-1-methyl-4,7-dioxo-4,7-dihydro-1H-indole-3-carboxylate], in [9], the “% Rem. (percent remaining after 3 hours)” value was 100%. In addition, the “NADPH Dep. (NADPH depletion at 90 minutes)” value in data set [8] was “None”.
Consider `COC1=CC(=O)c2c(c(CO)c(C)n2C)C1=O`, for which, in data set [9], the “% Rem. (percent remaining after 3 hours)” value worked out at 87% and the “GSH Adduct” value was “yes”. Moreover, the “NADPH Dep. (NADPH depletion at 90 minutes)” value in data set [8] turned out to be 74.83%.
On the same counts, the results for `COC1=CC(=O)c2c(c(CO)cn2C)C1=O` are 90%, “yes” and 95.99%.
On to `CCn1cc(C(=O)O)c(=O)c2cc(F)c(N3CCN(C(=O)OCc4c(C)c5c(n4C)C(=O)C=C(OC)C5=O)CC3)cc21`, for which, in data set [9], the “% Rem. (percent remaining after 3 hours)” value is recorded as 55.5% and the “Degr (degradation)” value is “yes”. Further, the “NADPH Dep. (NADPH depletion at 90 minutes)” value in data set [8] is listed as 26.1%.
On to `COC1=C(C)C(=O)c2c(c(C)c(CO)n2C)C1=O`, for which, in [9], the “% Rem. (percent remaining after 3 hours)” value came out at 92.5% and the “GSH Adduct” value was “yes”. Moreover, the “NADPH Dep. (NADPH depletion at 90 minutes)” value in data set [8] is reported as “None”.
Consider `C=C1C[C@H]2C(O)N(C(=O)OCc3ccccc3)c3cc(OC)c(OC)cc3C(=O)N2C1` (some centres unmarked) [PBD monomer control 2, reference compound], for which the half-maximal inhibitory concentration (IC50) in data set [1] was over 10000 nM; in data set [2], over 10000 nM; in data set [3], over 20000 nM; in data set [4], over 20000 nM; in data set [5] it was over 20000 nM. In [6], the “% Remaining at 24 h by Cys” value is 100%. In [7], the “% Remaining at 24 h by GSH” value turned out to be 100%.
With `COC1=CC(=O)c2c(c(C=O)c(CO)n2C)C1=O` [2-(hydroxymethyl)-5-methoxy-1-methyl-4,7-dioxo-4,7-dihydro-1H-indole-3-carbaldehyde], in [9], the “% Rem. (percent remaining after 3 hours)” value was found to be 0% and the “Degr (degradation)” value is “yes”. The “NADPH Dep. (NADPH depletion at 90 minutes)” value in [8] is 96.92%.
